Laboratory results reported in patent US20200079757A1, “COMPOUNDS FOR THE TREATMENT OF RESPIRATORY DISEASES” (THE UNIVERSITY OF MELBOURNE, priority 2017, published 2020).

What was measured:
[1] = tested on: PAI-1 gene expression in BEAS-2B cells; assay: TNF-α and TGF-β induced PAI-1 gene expression in BEAS-2B cells (RT-qPCR); format: cell-based; settings: agent 10 μM
Method: The primary assay for the activity of the novel CK1δ/ε inhibitors is the modulation of gene expression in the airway epithelial cell line, the BEAS-2B cells. The assay is conducted under several conditions. Generally, TGF-β or TNF-α is used to elicit fibrogenic or inflammatory genes, respectively. The agents are added at a concentration of 10 μM, or at the indicated concentrations for a period of 30 min prior to the addition of TGF-β/TNF-α which are incubated for a further 20 hours before the addition, in some experiments of the glucocorticoid, dexamethasone (Dex, 30 nM) for the final 4 hours of the experiment, prior to harvest of cellular RNA to measure by RT-qPCR the levels of mRNA of marker genes for inflammation and fibrogenesis. The inhaled corticosteroid (ICS), budesonide is also used in some experiments. Furthermore, the supernatants are harvested at the end of the incubation periods in selected experiments to measure the levels of CSF-2 or IL-8 by ELISA as described in (Tran et al. (2005) British Journal of Pharmacology, 145, 123-131). Prior to experimentation, BEAS-2B and A549 cells were incubated in serum-free DMEM containing 0.25% bovine serum albumin (BSA) and insulin-transferrin-selenium—containing supplement (Monomed A; CSL, Parkville, Melbourne, Australia). Where indicated, cells were treated with one of the series of synthesised compounds (0.3-10 μM) prior to exposure to 100 pM TGF-β1 (R&D Systems, Minneapolis, Minn.) or 300 pM bFGF (Promega, Madison, Wis.). Total RNA was extracted from cultured cells using illustra RNAspin Mini RNA Isolation Kit (GE Healthcare). RNA extracts were reverse-transcribed into cDNA using High-Capacity RNA-to-cDNA Kit (Applied Biosystems). Real-time PCR was then performed using a QuantStudio 6 Flex Real-Time PCR System using iTaq Universal SYBR green supermix and the following thermal protocol: 50° C. (2 min), 95° C. (10 min), then 40 cycles of 95° C. (15 sec), 60° C. (1 min). The threshold cycle (CT) values determined for target genes were normalized against those obtained for 18S ribosomal RNA (18S rRNA), which was included as internal control. The generation of specific PCR products was confirmed by dissociation curve analysis. In the same experiment as described in FIG. 1, the expression of the fibrogen plasminogen activator inhibitor-1 was measured (see FIG. 2). The levels of this gene are increased by both TGF-β and by Dex and they synergise when added together. The CK1 inhibitors concentration-dependently reduce the effects of each of the stimuli and further reduce baseline expression. Their potency in this effect is similar, regardless of the condition being considered. In a separate experiment BEAS-2B cells were exposed to TNF-α with(out) 30 min pretreatment with either SS9-010 or PF670462 (1-10 μM). RNA was then extracted and analyzed by RT-qPCR. Each agent inhibited TNFa stimulated PAI-1 expression with similar potency and maxima (see FIG. 3). Data are presented as mean±SD for n=1 (three technical replicates).

[2] = tested on: Col 1A gene expression in BEAS-2B cells; assay: TNFα and TGFβ induced Col 1A gene expression in BEAS-2B cells (RT-qPCR); format: cell-based; settings: agent 10 μM
Method: The primary assay for the activity of the novel CK1δ/ε inhibitors is the modulation of gene expression in the airway epithelial cell line, the BEAS-2B cells. The assay is conducted under several conditions. Generally, TGF-β or TNF-α is used to elicit fibrogenic or inflammatory genes, respectively. The agents are added at a concentration of 10 μM, or at the indicated concentrations for a period of 30 min prior to the addition of TGF-β/TNF-α which are incubated for a further 20 hours before the addition, in some experiments of the glucocorticoid, dexamethasone (Dex, 30 nM) for the final 4 hours of the experiment, prior to harvest of cellular RNA to measure by RT-qPCR the levels of mRNA of marker genes for inflammation and fibrogenesis. The inhaled corticosteroid (ICS), budesonide is also used in some experiments. Furthermore, the supernatants are harvested at the end of the incubation periods in selected experiments to measure the levels of CSF-2 or IL-8 by ELISA as described in (Tran et al. (2005) British Journal of Pharmacology, 145, 123-131).
Prior to experimentation, BEAS-2B and A549 cells were incubated in serum-free DMEM containing 0.25% bovine serum albumin (BSA) and insulin-transferrin-selenium—containing supplement (Monomed A; CSL, Parkville, Melbourne, Australia). Where indicated, cells were treated with one of the series of synthesised compounds (0.3-10 μM) prior to exposure to 100 pM TGF-β1 (R&D Systems, Minneapolis, Minn.) or 300 pM bFGF (Promega, Madison, Wis.).
Total RNA was extracted from cultured cells using illustra RNAspin Mini RNA Isolation Kit (GE Healthcare). RNA extracts were reverse-transcribed into cDNA using High-Capacity RNA-to-cDNA Kit (Applied Biosystems). Real-time PCR was then performed using a QuantStudio 6 Flex Real-Time PCR System using iTaq Universal SYBR green supermix and the following thermal protocol: 50° C. (2 min), 95° C. (10 min), then 40 cycles of 95° C. (15 sec), 60° C. (1 min). The threshold cycle (CT) values determined for target genes were normalized against those obtained for 18S ribosomal RNA (18S rRNA), which was included as internal control. The generation of specific PCR products was confirmed by dissociation curve analysis.

[3] = tested on: SCNN1A gene expression in BEAS-2B cells; assay: TGF-β-induced suppression of dexamethasone-induced SCNN1A gene expression in BEAS-2B cells; format: cell-based; settings: BEAS-2B, agent 10 μM
Method: The primary assay for the activity of the novel CK1δ/ε inhibitors is the modulation of gene expression in the airway epithelial cell line, the BEAS-2B cells. The assay is conducted under several conditions. Generally, TGF-β or TNF-α is used to elicit fibrogenic or inflammatory genes, respectively. The agents are added at a concentration of 10 μM, or at the indicated concentrations for a period of 30 min prior to the addition of TGF-β/TNF-α which are incubated for a further 20 hours before the addition, in some experiments of the glucocorticoid, dexamethasone (Dex, 30 nM) for the final 4 hours of the experiment, prior to harvest of cellular RNA to measure by RT-qPCR the levels of mRNA of marker genes for inflammation and fibrogenesis. The inhaled corticosteroid (ICS), budesonide is also used in some experiments. Furthermore, the supernatants are harvested at the end of the incubation periods in selected experiments to measure the levels of CSF-2 or IL-8 by ELISA as described in (Tran et al. (2005) British Journal of Pharmacology, 145, 123-131). Prior to experimentation, BEAS-2B and A549 cells were incubated in serum-free DMEM containing 0.25% bovine serum albumin (BSA) and insulin-transferrin-selenium—containing supplement (Monomed A; CSL, Parkville, Melbourne, Australia). Where indicated, cells were treated with one of the series of synthesised compounds (0.3-10 μM) prior to exposure to 100 pM TGF-β1 (R&D Systems, Minneapolis, Minn.) or 300 pM bFGF (Promega, Madison, Wis.). Total RNA was extracted from cultured cells using illustra RNAspin Mini RNA Isolation Kit (GE Healthcare). RNA extracts were reverse-transcribed into cDNA using High-Capacity RNA-to-cDNA Kit (Applied Biosystems). Real-time PCR was then performed using a QuantStudio 6 Flex Real-Time PCR System using iTaq Universal SYBR green supermix and the following thermal protocol: 50° C. (2 min), 95° C. (10 min), then 40 cycles of 95° C. (15 sec), 60° C. (1 min). The threshold cycle (CT) values determined for target genes were normalized against those obtained for 18S ribosomal RNA (18S rRNA), which was included as internal control. The generation of specific PCR products was confirmed by dissociation curve analysis. In FIG. 1, the effects of SS9-010 are contrasted with those of PF670462 in an assay in BEAS-B cells measuring the induction of the glucocorticoid-regulated gene, SCNN1A encoding the protein epithelial sodium channel alpha subunit. Serum-starved BEAS-2B cells were treated with CK1δ/ε inhibitor PF670462 (1, 3, 10 μM) or SS9-010 (1, 3, 10 μM) 30 min prior to TGF-β1 (40 pM) for 24 hours, then stimulated with dexamethasone (30 nM) for 4 hours. RNA was then extracted and analyzed by RT-qPCR. Data are presented as mean±SEM for n=4 independent experiments. The potency of PF670462 and SS9-010 were similar.

Compound | melting point [°C] | PAI-1 mRNA level, TGF-β [1] | PAI-1 mRNA level, TNF-α (n = 2) [1] [fold control] | PAI-1 mRNA level, vehicle (no stimulus) [1] [fold control] | Col1A mRNA level, TGF-β [2] | Col1A mRNA level, TNF-α (n = 2) [2] [fold control] | Col1A mRNA level, vehicle (no stimulus) [2] [fold control] | SCNN1A mRNA level, Dex [3] [fold control] | SCNN1A mRNA level, TGF-β [3] [fold control] | SCNN1A mRNA level, TGF-β/Dex [3] [fold control] | SCNN1A mRNA level, vehicle (no stimulus) [3] [fold control]
CCCCN1CCC(n2cnc(-c3ccc(F)cc3)c2-c2ccnc(N)n2)CC1 [SS9-074, 4-(1-(1-Butylpiperidin-4-yl)-4-(4-fluorophenyl)-1H-imidazol-5-yl)pyrimidin-2-amine] |  | 12.3 (n = 2) fold control | 1.83 | 0.68 | 12.2 (n = 2) fold control | 2.14 | 1.61 | 3.46 | 0.36 | 3.27 | 1.22
Fc1ccc(-c2ncn(C3CCCCC3)c2-c2ccnc(NC3CCC3)n2)cc1 [compound 81, N-Cyclobutyl-4-(1-cyclohexyl-4-(4-fluorophenyl)-1H-imidazol-5-yl)pyrimidin-2-amine] | 185 to 189 |  |  |  |  |  |  |  |  |  | 
Nc1nccc(-c2c(-c3ccc(F)cc3)ncn2C2CCN(CCCCc3ccccc3)CC2)n1 [SS8-070, 4-(4-(4-Fluorophenyl)-1-[1-(4-phenylbutyl)piperidin-4-yl)-1H-imidazol-5-yl)pyrimidin-2-amine] |  | 6.57 (n = 2) fold control | 0.79 | 0.41 | 8.52 (n = 2) fold control | 0.88 | 1.17 | 3.79 | 0.42 | 2.15 | 1.63
C#CCNc1nccc(-c2c(-c3ccc(F)cc3)ncn2C2CCCCC2)n1 [compound 83, 4-(1-Cyclohexyl-4-(4-fluorophenyl)-1H-imidazol-5-yl)-N-(prop-2-yn-1-yl)pyrimidin-2-amine] | 147 to 155 |  |  |  |  |  |  |  |  |  | 
OCCNc1nccc(-c2c(-c3ccc(F)cc3)ncn2C2CCCCC2)n1 [compound 84, 2-((4-(1-Cyclohexyl-4-(4-fluorophenyl)-1H-imidazol-5-yl)pyrimidin-2-yl)amino)ethan-1-ol] | 180 to 184 |  |  |  |  |  |  |  |  |  | 
Cc1ccc(-c2ncn(C3CCCCC3)c2-c2ccnc(N)n2)cc1 [SS8-186] |  | 6.58 ± 1.04 fold control | 1.54 | 0.75 ± 0.07 | 3.14 ± 0.20 fold control | 0.56 | 0.50 ± 0.12 | 3.06 ± 0.34 | 0.42 ± 0.06 | 1.84 ± 0.25 | 1.36 ± 0.17
CC(C)(C)n1cnc(-c2ccc(F)cc2)c1-c1ccnc(N)n1 [ZH9-190, 4-(1-(Tert-butyl)-4-(4-fluorophenyl)-1H-imidazol-5-yl)pyrimidin-2-amine] | 189 to 197 |  |  |  |  |  |  |  |  |  | 
Nc1nccc(-c2c(-c3ccc(F)cc3)ncn2C23CC4CC(CC(C4)C2)C3)n1 [SS8-122, 4-(Adamantan-1-yl-4-(4-fluorophenyl)-1H-imidazol-5-yl)pyrimidin-2-amine] |  |  | 2.76 | 1.45 | 8.07 fold control | 1.56 | 1.39 | 4.26 | 0.15 | 1.67 | 0.86

The next lines start with results.

melting point [°C] | Compound | PAI-1 mRNA level, TGF-β [1] | PAI-1 mRNA level, TNF-α (n = 2) [1] [fold control] | PAI-1 mRNA level, vehicle (no stimulus) [1] [fold control] | Col1A mRNA level, TGF-β [2] | Col1A mRNA level, TNF-α (n = 2) [2] [fold control] | Col1A mRNA level, vehicle (no stimulus) [2] [fold control] | SCNN1A mRNA level, Dex [3] [fold control] | SCNN1A mRNA level, TGF-β [3] [fold control] | SCNN1A mRNA level, TGF-β/Dex [3] [fold control] | SCNN1A mRNA level, vehicle (no stimulus) [3] [fold control]
204 to 212 | CCn1cnc(-c2ccc(F)cc2)c1-c1ccnc(N)n1 [ZH-6, 4-(1-(Ethyl)-4-(4-fluorophenyl)-1H-imidazol-5-yl)pyrimidin-2-amine] |  |  |  |  |  |  |  |  |  | 
229 to 231 | Nc1nccc(-c2c(-c3ccc(F)cc3)ncn2C2CCC2)n1 [ZH-62, 4-(1-Cyclobutyl-4-(4-fluorophenyl)-1H-imidazol-5-yl)pyrimidin-2-amine] |  |  |  |  |  |  |  |  |  | 
180 to 199 | Nc1nccc(-c2c(-c3ccc(F)cc3)ncn2CC2CCCCC2)n1 [ZH-138, 4-(1-(Cyclohexylmethyl)-4-(4-fluorophenyl)-1H-imidazol-5-yl)pyrimidin-2-amine] |  |  |  |  |  |  |  |  |  | 
